We go through 29 compounds from patent US11547697B2, “Heterocyclic compounds and uses thereof” (MILLENNIUM PHARMACEUTICALS, INC., priority 2009, dated 2023).

Like-named read-outs stand apart in the source and are kept apart here. A value given as a limit tells only on which side of the number the result lay.

The target in assay [1] is p110α/p85α (Homo sapiens (Human), UniProt P42336). The experiment in a line: PI 3-Kinase (human) HTRF assay, p110α/p85α. Format: biochemical. For orientation: TR-FRET usually uses a lanthanide donor and a delayed reading to cut background.
Chain of p110α/p85α (P42336 whole entry): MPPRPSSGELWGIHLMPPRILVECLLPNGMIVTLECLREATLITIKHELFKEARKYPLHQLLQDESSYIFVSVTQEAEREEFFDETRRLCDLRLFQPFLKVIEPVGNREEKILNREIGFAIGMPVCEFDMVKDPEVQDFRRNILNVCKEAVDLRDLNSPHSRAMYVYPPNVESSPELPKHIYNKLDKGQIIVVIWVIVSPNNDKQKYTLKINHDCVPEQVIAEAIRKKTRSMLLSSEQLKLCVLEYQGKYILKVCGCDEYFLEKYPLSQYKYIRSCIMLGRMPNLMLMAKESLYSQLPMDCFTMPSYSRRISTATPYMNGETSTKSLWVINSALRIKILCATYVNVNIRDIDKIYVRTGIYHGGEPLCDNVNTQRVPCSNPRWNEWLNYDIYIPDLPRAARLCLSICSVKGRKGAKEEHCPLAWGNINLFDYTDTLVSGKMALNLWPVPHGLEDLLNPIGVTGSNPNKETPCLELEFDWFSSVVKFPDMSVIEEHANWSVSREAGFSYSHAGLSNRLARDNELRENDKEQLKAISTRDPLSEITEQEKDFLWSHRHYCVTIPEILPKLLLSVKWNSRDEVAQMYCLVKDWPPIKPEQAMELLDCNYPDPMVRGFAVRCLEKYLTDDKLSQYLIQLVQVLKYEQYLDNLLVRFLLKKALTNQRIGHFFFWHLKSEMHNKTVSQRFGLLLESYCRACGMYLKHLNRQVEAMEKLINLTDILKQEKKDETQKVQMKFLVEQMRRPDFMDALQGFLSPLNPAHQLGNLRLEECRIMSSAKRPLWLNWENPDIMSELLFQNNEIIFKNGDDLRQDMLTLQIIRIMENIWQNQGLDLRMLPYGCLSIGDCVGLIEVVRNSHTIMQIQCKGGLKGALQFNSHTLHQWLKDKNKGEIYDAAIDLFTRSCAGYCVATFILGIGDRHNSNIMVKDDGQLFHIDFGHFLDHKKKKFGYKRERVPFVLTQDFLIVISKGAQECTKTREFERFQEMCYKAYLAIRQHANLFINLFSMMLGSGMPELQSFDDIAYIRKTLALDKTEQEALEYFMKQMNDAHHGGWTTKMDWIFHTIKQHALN
Chain of p110α/p85α (P27986 whole entry partner): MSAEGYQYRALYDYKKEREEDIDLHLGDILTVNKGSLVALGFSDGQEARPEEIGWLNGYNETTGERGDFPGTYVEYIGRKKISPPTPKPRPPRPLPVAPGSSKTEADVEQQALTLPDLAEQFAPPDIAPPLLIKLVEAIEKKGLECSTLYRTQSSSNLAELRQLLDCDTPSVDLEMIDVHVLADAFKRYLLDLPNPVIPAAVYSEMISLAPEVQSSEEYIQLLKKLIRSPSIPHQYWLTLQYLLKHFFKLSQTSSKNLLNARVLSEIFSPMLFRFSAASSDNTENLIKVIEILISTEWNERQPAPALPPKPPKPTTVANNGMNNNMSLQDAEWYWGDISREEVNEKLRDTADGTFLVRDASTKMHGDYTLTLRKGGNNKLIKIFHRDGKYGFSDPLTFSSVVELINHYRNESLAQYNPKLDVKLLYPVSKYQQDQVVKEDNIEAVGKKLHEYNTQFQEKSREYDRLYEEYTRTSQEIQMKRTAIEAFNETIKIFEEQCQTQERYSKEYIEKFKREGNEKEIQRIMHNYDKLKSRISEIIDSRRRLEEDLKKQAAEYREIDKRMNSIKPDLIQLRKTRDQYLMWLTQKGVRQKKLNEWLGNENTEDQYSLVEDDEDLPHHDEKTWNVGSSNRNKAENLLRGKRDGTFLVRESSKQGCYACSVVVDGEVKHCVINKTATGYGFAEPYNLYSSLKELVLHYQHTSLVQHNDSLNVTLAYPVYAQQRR
Assay [2] concerns the target recombinant mTOR (Homo sapiens (Human), UniProt P42345). The experiment in a line: mTOR inhibition assay (radiometric or LanthaScreen TR-FRET). In kind it is biochemical. To be noted: read-out: MTORC IC50.
Experimental: The compounds described herein can be tested against recombinant mTOR (Invitrogen) in an assay containing 50 mM HEPES, pH 7.5, 1 mM EGTA, 10 mM MgCl2, 2.5 mM, 0.01% Tween, 10 pM ATP (2.5 μCi of μ-32P-ATP), and 3 μg/mL BSA. R^at recombinant PHAS-1/4EBP1 (Calbiochem; 2 mg/mL) is used as a substrate. Reactions are terminated by spotting onto nitrocellulose, which is washed with 1M NaCl/1% phosphoric acid (approximately 6 times, 5-10 minutes each). Sheets are dried and the transferred radioactivity quantitated by phosphorimaging.
For instance, one can use Invitrogen's LanthaScreen™ Kinase assay to test the inhibitors of mTOR disclosed herein. This assay is a time resolved FRET platform that measures the phosphorylation of GFP labeled 4EBP1 by mTOR kinase. The kinase reaction is performed in a white 384 well microtitre plate. The total reaction volume is 20 ul per well and the reaction buffer composition is 50 mM HEPES pH7.5, 0.01% Polysorbate 20, 1 mM EGTA, 10 mM MnCl2, and 2 mM DTT. In the first step, each well receives 2 ul of test compound in 20% dimethylsulphoxide resulting in a 2% DMSO final concentration. Next, 8 ul of mTOR diluted in reaction buffer is added per well for a 60 ng/ml final concentration. To start the reaction, 10 ul of an ATP/GFP-4EBP1 mixture (diluted in reaction buffer) is added per well for a final concentration of 10 μM ATP and 0.5 μM GFP-4EBP1. The plate is sealed and incubated for 1 hour at room temperature. […] The plate is sealed, incubated for 1 hour at room temperature, and then read on a plate reader set up for LanthaScreen™ TR-FRET. Data is analyzed and IC50s are generated using GraphPad Prism 5.
In assay [3] the target is p110δ/p85α (Homo sapiens (Human), UniProt O00329). The experiment in a line: PI 3-Kinase (human) HTRF assay, p110δ/p85α. Format: biochemical.
Chain of p110δ/p85α (O00329 whole entry): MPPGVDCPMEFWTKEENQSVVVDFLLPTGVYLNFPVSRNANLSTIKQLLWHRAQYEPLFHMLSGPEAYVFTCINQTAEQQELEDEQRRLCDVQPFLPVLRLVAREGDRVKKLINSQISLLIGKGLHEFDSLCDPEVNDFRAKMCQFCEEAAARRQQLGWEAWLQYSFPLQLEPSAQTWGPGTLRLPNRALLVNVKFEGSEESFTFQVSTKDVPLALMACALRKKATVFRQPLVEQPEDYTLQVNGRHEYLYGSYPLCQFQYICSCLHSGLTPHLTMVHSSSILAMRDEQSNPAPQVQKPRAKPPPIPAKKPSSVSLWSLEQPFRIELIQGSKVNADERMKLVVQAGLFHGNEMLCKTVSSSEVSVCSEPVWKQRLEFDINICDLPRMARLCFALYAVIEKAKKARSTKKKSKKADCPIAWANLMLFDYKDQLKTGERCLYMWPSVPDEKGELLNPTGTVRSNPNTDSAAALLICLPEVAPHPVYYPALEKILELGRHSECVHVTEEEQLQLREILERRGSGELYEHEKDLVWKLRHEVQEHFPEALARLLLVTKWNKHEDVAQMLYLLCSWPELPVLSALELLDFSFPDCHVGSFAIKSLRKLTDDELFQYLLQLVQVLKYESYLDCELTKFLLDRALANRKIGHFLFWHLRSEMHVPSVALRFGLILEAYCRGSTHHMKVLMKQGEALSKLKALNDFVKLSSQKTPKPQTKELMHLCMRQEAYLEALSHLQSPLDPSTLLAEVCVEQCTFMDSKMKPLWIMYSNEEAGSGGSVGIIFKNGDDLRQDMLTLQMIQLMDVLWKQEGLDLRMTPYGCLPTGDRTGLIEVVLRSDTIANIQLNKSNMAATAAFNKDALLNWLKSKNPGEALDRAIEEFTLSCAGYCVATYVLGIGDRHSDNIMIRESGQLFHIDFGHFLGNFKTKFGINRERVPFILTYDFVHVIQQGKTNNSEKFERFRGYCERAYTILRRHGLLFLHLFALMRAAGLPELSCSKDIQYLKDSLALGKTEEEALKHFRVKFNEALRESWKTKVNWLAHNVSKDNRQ
Chain of p110δ/p85α (P27986 whole entry partner): as the sequence (P27986 whole entry partner) above
The target in assay [4] is p110γ (Homo sapiens (Human), UniProt P48736). The experiment in a line: PI 3-Kinase (human) HTRF assay, p110γ. Format: biochemical.
Chain of p110γ (P48736 whole entry): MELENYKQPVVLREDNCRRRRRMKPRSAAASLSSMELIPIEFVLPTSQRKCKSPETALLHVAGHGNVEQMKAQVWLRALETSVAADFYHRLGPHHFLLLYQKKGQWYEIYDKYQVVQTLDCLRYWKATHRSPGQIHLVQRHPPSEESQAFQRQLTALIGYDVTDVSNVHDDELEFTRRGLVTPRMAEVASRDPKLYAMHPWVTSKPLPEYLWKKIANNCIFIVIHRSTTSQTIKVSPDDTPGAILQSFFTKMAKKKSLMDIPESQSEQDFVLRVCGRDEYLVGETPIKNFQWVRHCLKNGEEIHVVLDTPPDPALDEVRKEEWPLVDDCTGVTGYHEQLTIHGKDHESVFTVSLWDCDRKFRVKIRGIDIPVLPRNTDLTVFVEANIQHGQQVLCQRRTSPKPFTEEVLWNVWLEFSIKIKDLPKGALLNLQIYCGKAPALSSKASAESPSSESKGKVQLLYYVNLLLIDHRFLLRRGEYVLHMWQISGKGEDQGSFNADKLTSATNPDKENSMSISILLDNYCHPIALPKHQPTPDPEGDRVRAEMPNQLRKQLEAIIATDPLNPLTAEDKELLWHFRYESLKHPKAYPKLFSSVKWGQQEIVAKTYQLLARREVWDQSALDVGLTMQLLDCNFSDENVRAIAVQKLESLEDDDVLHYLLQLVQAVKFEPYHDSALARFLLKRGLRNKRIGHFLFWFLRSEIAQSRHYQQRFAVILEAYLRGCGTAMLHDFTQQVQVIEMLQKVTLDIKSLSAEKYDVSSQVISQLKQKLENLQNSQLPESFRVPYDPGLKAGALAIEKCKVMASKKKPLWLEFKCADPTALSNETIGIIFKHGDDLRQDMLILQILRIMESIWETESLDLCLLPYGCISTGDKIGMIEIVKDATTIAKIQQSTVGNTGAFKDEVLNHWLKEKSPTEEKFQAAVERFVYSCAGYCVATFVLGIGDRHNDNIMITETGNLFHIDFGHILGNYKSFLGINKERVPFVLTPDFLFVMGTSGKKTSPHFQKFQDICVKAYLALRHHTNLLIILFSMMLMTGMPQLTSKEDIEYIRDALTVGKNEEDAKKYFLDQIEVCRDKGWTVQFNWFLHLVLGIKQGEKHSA
Assay [5] concerns the target p110β/p85α (Homo sapiens (Human), UniProt P42338). The experiment in a line: PI 3-Kinase (human) HTRF assay, p110β/p85α. Format: biochemical.
In assay [6] the test system is tumor cells with a PI3Kα mutation (e.g., MDA-MB-361 and T47D). The experiment in a line: Proliferation of tumor cells with PI3Kα mutation. To be noted: Homo sapiens, PC3; read-out: PC3 proliferation In Vitro IC50. In kind it is cell-based.
Setting [7] is: in vitro, read-out: PI3K β IC50.
The mark [8] stands for this setting: in vitro, read-out: PI3K α IC50.
Where [9] appears, read: in vitro, read-out: PI3K δ IC50.
[10] abbreviates: in vitro, read-out: PI3K γ IC50.

Chain of p110β/p85α (P42338 whole entry): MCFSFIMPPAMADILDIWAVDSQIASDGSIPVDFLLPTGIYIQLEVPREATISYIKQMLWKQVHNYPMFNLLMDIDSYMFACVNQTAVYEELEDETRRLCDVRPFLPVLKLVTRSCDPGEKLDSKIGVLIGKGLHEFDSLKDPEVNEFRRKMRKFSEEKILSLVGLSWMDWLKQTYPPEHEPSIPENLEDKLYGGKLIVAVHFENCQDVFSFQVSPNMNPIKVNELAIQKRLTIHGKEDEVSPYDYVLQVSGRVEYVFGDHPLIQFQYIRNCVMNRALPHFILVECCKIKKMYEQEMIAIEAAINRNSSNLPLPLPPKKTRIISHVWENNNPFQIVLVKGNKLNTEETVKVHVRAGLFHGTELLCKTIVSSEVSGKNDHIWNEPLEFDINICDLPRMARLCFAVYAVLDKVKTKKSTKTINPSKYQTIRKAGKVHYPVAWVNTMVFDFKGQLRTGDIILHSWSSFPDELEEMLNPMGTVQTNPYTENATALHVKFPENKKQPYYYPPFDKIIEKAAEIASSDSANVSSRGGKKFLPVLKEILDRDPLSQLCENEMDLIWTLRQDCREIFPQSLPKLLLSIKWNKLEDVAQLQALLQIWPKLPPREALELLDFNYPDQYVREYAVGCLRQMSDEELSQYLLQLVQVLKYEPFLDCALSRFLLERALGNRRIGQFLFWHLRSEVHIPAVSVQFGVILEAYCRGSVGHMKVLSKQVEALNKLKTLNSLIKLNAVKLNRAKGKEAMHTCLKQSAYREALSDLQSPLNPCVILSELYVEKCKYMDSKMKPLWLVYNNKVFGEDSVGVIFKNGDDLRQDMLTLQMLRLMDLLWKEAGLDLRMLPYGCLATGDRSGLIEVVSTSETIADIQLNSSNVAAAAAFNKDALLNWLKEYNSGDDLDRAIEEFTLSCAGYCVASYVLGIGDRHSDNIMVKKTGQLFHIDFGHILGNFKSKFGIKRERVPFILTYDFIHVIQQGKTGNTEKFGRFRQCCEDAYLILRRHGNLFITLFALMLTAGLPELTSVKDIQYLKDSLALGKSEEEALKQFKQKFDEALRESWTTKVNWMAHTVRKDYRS
Chain of p110β/p85α (P27986 whole entry partner): as the sequence (P27986 whole entry partner) above

With `Nc1nc2ccc(-c3ccc4nccc(-c5ccncc5)c4c3)cc2s1` [compound 3], the IC50 in assay [1] (read-out: PI3K α IC50) is under 0.1 µM; in assay [2], under 1 µM; in assay [3] (read-out: PI3K δ IC50), under 1 µM; in assay [4] (read-out: PI3K γ IC50), under 1 µM.

On to `Nc1ccc2cc(-c3ccc4nccc(-c5ccncc5)c4c3)ccc2n1` [compound 5], for which the IC50 is under 1 µM in assay [1] (read-out: PI3K α IC50), under 1 µM in assay [2], under 10 µM in assay [3] (read-out: PI3K δ IC50) and under 1 µM in assay [4] (read-out: PI3K γ IC50).

`Nc1nc2cccc(-c3ccc4nccc(-c5ccncc5)c4c3)c2o1` [compound 15]: the IC50 in assay [5] (read-out: PI3K β IC50) is under 0.1 µM; in assay [1] (read-out: PI3K α IC50) it was under 0.1 µM; in assay [2] it was under 0.1 µM; in assay [3] (read-out: PI3K δ IC50), under 1 µM; in assay [4] (read-out: PI3K γ IC50), under 1 µM.

As for `Cn1cc(-c2ccnc3ccc(-c4ccc5oc(N)nc5c4)cc23)cn1` [compound 26], the IC50 in assay [1] (read-out: PI3K α IC50) was under 0.1 µM; in assay [2] it was under 1 µM; in assay [3] (read-out: PI3K δ IC50) it was under 0.1 µM; in assay [4] (read-out: PI3K γ IC50), under 0.1 µM.

Regarding `Nc1nc2cc(-c3ccc4nccn4c3)ccc2o1` [compound 40], the IC50 in assay [1] (read-out: PI3K α IC50), in assay [2] and in assay [4] (read-out: PI3K γ IC50) was under 10 µM in each case.

Regarding `CN1CCN(C(=O)c2cnc3ccc(-c4ccc5oc(N)nc5c4)cn23)CC1` [compound 44], the IC50 in assay [1] (read-out: PI3K α IC50) is under 0.1 µM; in assay [2], under 10 µM; in assay [3] (read-out: PI3K δ IC50), under 10 µM; in assay [4] (read-out: PI3K γ IC50), under 10 µM.

In the case of `N#Cc1cnc2ccc(-c3ccc4oc(N)nc4c3)cc2c1-c1ccncc1` [compound 46], the IC50 in assay [1] (read-out: PI3K α IC50), in assay [2], in assay [3] (read-out: PI3K δ IC50) and in assay [4] (read-out: PI3K γ IC50) was under 0.1 µM throughout.

Regarding `Nc1nc2cc(-c3ccc4ncc(-c5ccnc(N6CCOCC6)c5)n4c3)ccc2o1` [compound 52], the IC50 in assay [1] (read-out: PI3K α IC50) was under 0.1 µM; in assay [2] it was under 10 µM; in assay [3] (read-out: PI3K δ IC50) it was under 0.1 µM; in assay [4] (read-out: PI3K γ IC50), under 0.1 µM.

Take `CC(=O)N1CCC(Nc2ncnc3ccc(-c4ccc5oc(N)nc5c4)cc23)CC1` [compound 60]: the IC50 in assay [5] (read-out: PI3K β IC50) was under 10 µM; in assay [1] (read-out: PI3K α IC50), under 0.1 µM; in assay [2], under 1 µM; in assay [3] (read-out: PI3K δ IC50), under 1 µM; in assay [4] (read-out: PI3K γ IC50) it was under 0.1 µM.

On to `Nc1nc2cc(-c3ccn4ncc(-c5ccncc5)c4n3)ccc2o1` [compound 62], for which the IC50 in assay [5] (read-out: PI3K β IC50), in assay [1] (read-out: PI3K α IC50), in assay [2], in assay [3] (read-out: PI3K δ IC50) and in assay [4] (read-out: PI3K γ IC50) was under 0.1 µM throughout.

Turning to `Nc1nc2cc(-c3ccc4ncc(=O)[nH]c4c3)ccc2o1` [compound 72], the IC50 is under 1 µM in assay [5] (read-out: PI3K β IC50), under 0.1 µM in assay [1] (read-out: PI3K α IC50), under 1 µM in assay [2] and under 0.1 µM in assay [4] (read-out: PI3K γ IC50).

With `N#Cc1cnc2ccc(-c3ccc4oc(N)nc4c3)cc2c1Cl` [compound 77], the IC50 in assay [2] was under 1 µM.

Turning to `N#Cc1cnc2ccc(-c3ccc4oc(N)nc4c3)cc2c1` [compound 93], the IC50 in assay [1] (read-out: PI3K α IC50) was under 1 µM; in assay [2], under 10 µM; in assay [4] (read-out: PI3K γ IC50), under 1 µM.

For `Nc1nc2cc(-c3ccc4nc(N)sc4c3)ccc2o1` [compound 232], the IC50 in assay [5] (setting [7]) is under 1 µM; in assay [1] (setting [8]), under 1 µM; in assay [2] (in vitro) it was under 10 µM; in assay [3] (setting [9]), under 10 µM; in assay [4] (setting [10]), under 0.1 µM.

`CC(=O)Nc1ncc(-c2ccc3oc(N)nc3c2)s1` [compound 235]: the IC50 in assay [1] (setting [8]), in assay [2] (in vitro), in assay [3] (setting [9]) and in assay [4] (setting [10]) was under 10 µM each time.

With `CC(C)Oc1nc(-c2ccc3oc(N)nc3c2)cnc1N` [compound 237], the IC50 was under 10 µM in assay [5] (setting [7]), under 10 µM in assay [1] (setting [8]), under 1 µM in assay [2] (in vitro) and under 10 µM in assay [4] (setting [10]).

Consider `Nc1nc2cc(-c3ccc4oc(N)nc4c3)ccc2o1` [compound 240], for which the IC50 in assay [1] (setting [8]) was under 1 µM; in assay [2] (in vitro), under 10 µM; in assay [3] (setting [9]), under 10 µM; in assay [4] (setting [10]) it was under 0.1 µM.

Consider `Nc1nc2cc(-c3ccc4nc(N)oc4c3)ccc2o1` [compound 241], for which the IC50 in assay [1] (setting [8]) was under 1 µM; in assay [2] (in vitro) it was under 10 µM; in assay [3] (setting [9]) it was under 1 µM; in assay [4] (setting [10]) it was under 0.1 µM.

Take `Nc1nc2cc(-c3ccc4ncc(N5CC(N6CCN(C7CC7)CC6)C5)nc4c3)ccc2o1` [compound 313]: the IC50 in assay [5] (setting [7]) is under 10 µM; in assay [1] (setting [8]), under 0.1 µM; in assay [2] (in vitro), under 10 µM; in assay [3] (setting [9]), under 10 µM; in assay [4] (setting [10]) it was under 10 µM.

On to `Nc1nc2cc(-c3ccc4ncc(N5CC(N6CC[C@@H](O)C6)C5)nc4c3)ccc2o1` [compound 315], for which the IC50 is under 10 µM in assay [5] (setting [7]); under 0.1 µM in assay [1] (setting [8]); under 1 µM in assay [2] (in vitro); under 10 µM in assay [3] (setting [9]); under 10 µM in assay [4] (setting [10]).

Turning to `Nc1nc2cc(-c3ccc4ncc(N5CC(n6cccn6)C5)nc4c3)ccc2o1` [compound 318], the IC50 in assay [5] (setting [7]) is under 10 µM; in assay [1] (setting [8]), under 0.1 µM; in assay [2] (in vitro), under 1 µM; in assay [4] (setting [10]) it was under 1 µM.

In the case of `COC(=O)N1CCC(n2ncc3c(N4CCOCC4)nc(-c4ccc5oc(N)nc5c4)nc32)CC1` [compound 330], the IC50 in assay [5] (setting [7]) is under 10 µM; in assay [1] (setting [8]) it was under 1 µM; in assay [2] (in vitro) it was under 1 µM.

As to `CN1CCN([C@@H]2CCN(c3cnc4ccc(-c5ccc6oc(N)nc6c5)cc4n3)C2)CC1` [compound 379], the IC50 was under 1 µM in assay [5] (setting [7]), under 0.1 µM in assay [1] (setting [8]), under 10 µM in assay [2] (in vitro) and under 10 µM in assay [3] (setting [9]).

Consider `C[C@@H]1CN(C2CN(C(=O)c3cnc4ccc(-c5ccc6oc(N)nc6c5)cn34)C2)CCN1` [compound 511], for which the IC50 in assay [6] is under 10 µM; in assay [5] (read-out: PI3K β In Vitro IC50), under 10 µM; in assay [1] (read-out: PI3K α In Vitro IC50) it was under 0.1 µM; in assay [3] (read-out: PI3K δ In Vitro IC50), under 1 µM; in assay [4] (read-out: PI3K γ In Vitro IC50), under 10 µM.

As for `C[C@H]1CN(C2CN(C(=O)c3cnc4ccc(-c5ccc6oc(N)nc6c5)cn34)C2)CCN1C` [compound 512], the IC50 in assay [6] was under 1 µM; in assay [5] (read-out: PI3K β In Vitro IC50), under 10 µM; in assay [1] (read-out: PI3K α In Vitro IC50), under 0.1 µM; in assay [3] (read-out: PI3K δ In Vitro IC50), under 1 µM; in assay [4] (read-out: PI3K γ In Vitro IC50), under 10 µM.

Consider `CC1(C)CN(C2CN(C(=O)c3cnc4ccc(-c5ccc6oc(N)nc6c5)cn34)C2)CCN1` [compound 515], for which the IC50 was under 1 µM in assay [6]; under 10 µM in assay [5] (read-out: PI3K β In Vitro IC50); under 0.1 µM in assay [1] (read-out: PI3K α In Vitro IC50); under 0.1 µM in assay [3] (read-out: PI3K δ In Vitro IC50); under 1 µM in assay [4] (read-out: PI3K γ In Vitro IC50).

Turning to `COc1ncc(-c2ccc3ncn(C4CCN(C(C)C)CC4)c(=O)c3c2)cc1NS(=O)(=O)c1ccccc1` [compound 522], the IC50 was under 1 µM in assay [6]; under 0.1 µM in assay [5] (read-out: PI3K β In Vitro IC50); under 0.1 µM in assay [1] (read-out: PI3K α In Vitro IC50); under 0.1 µM in assay [3] (read-out: PI3K δ In Vitro IC50); under 0.1 µM in assay [4] (read-out: PI3K γ In Vitro IC50).

Take `CC(C)N1CCC(n2cnc3ccc(-c4cnc(Cl)c(NS(C)(=O)=O)c4)cc3c2=O)CC1` [compound 523]: the IC50 in assay [6] was under 10 µM; in assay [5] (read-out: PI3K β In Vitro IC50), under 1 µM; in assay [1] (read-out: PI3K α In Vitro IC50), under 0.1 µM; in assay [3] (read-out: PI3K δ In Vitro IC50), under 0.1 µM; in assay [4] (read-out: PI3K γ In Vitro IC50) it was under 0.1 µM.

Consider `COc1ncc(-c2ccc3ncn(C4CCN(C)CC4)c(=O)c3c2)cc1NS(=O)(=O)c1ccccc1` [compound 524], for which the IC50 was under 1 µM in assay [6]; under 0.1 µM in assay [5] (read-out: PI3K β In Vitro IC50); under 0.1 µM in assay [1] (read-out: PI3K α In Vitro IC50); under 0.1 µM in assay [3] (read-out: PI3K δ In Vitro IC50); under 1 µM in assay [4] (read-out: PI3K γ In Vitro IC50).
